Where “and” joins values, the source holds several entries; their conditions need not be identical. Equal values may be shown once.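 1) Cells in 96-well plates. 2) Compound, 48 h, 5 concentrations. 3) Linear interpolation between surrounding doses. 4) Unreached endpoint = highest concentration. The concentration for 50% growth inhibition is given as GI50. The concentration for full growth arrest is given as TGI.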
Legend:
Assay in all cases: NCI-60 cell line screen, 48 h
[1] = test system: MDA-MB-435
[2] = test system: TK-10 renal
[3] = test system: NCI-H460 lung
[4] = test system: BT-549 breast
[5] = test system: HT29 colon
[6] = test system: ACHN renal
[7] = test system: 786-0 renal
[8] = test system: NCI-H23 lung

| SMILES | GI50 [1] | TGI [1] | GI50 [2] | TGI [2] | GI50 [3] | TGI [3] | GI50 [4] | TGI [4] | GI50 [5] | TGI [5] | GI50 [6] | TGI [6] | GI50 [7] | TGI [7] | GI50 [8] | TGI [8] |
| --- | --- | --- | --- | --- | --- | --- | --- | --- | --- | --- | --- | --- | --- | --- | --- | --- |
| CCN(CC)CCCNCc1cc(-c2ccccc2)nc2ccccc12 | 4.47 µM | 24.3 µM | 5.09 µM | 31.8 µM | 33.2 µM | > 100 µM | 3.77 µM | 15.9 µM | 2.77 µM | 10.6 µM | 33.3 µM | > 100 µM | 11.1 µM | 28.3 µM | 6.07 µM | 85.2 µM |
| CC(=O)c1c(C)[nH]c(-c2nc3ccc(N4CCN(C)CC4)cc3[nH]2)c1-c1ccc(N(C)C)cc1 | 0.554 µM | 13.7 µM | 0.294 µM | 15.8 µM | 2.76 µM | > 56.2 µM | 3.05 µM | 18.6 µM | 0.299 µM | 19.4 µM | 0.773 µM | 12.6 µM | 1.44 µM | 16.7 µM | 2 µM | 21.4 µM |
| Cc1nc2ccccc2c(/C=C/c2ccc(Cl)cc2)c1C(=O)/C=C/c1ccc(C(F)(F)F)cc1 | 0.243 µM | 0.655 µM | 1.69 µM | 3.09 µM | 0.642 µM | 1.89 µM | 0.623 µM | 2.1 µM | 0.165 µM | 0.54 µM | 0.241 µM | 0.594 µM | 0.33 µM | 1.26 µM | 0.827 µM | 2.78 µM |
| COCc1cc(C(=O)Nc2cc([C@H]3CC[C@@H](OC(=O)NC(C)C)C3)[nH]n2)n(C)n1 | 16.1 µM | > 100 µM | 19.9 µM | > 100 µM | 5.64 µM | > 100 µM | 9.27 µM | 41.1 µM | 10.3 µM | 89 µM | 11.1 µM | > 100 µM | 11.2 µM | > 100 µM | – | – |
| O=C(COc1cc(O)c2c(=O)cc(-c3ccccc3)oc2c1)Nc1ccccc1C(F)(F)F | 6.03 µM | > 100 µM | 1.88 µM | 3.71 µM | 2.59 µM | 6.68 µM | 5.19 µM | 38.9 µM | 6.48 µM | > 100 µM | 2.91 µM | 9.63 µM | 2.01 µM | 4.15 µM | 3.07 µM | 11.6 µM |
| O=C(Nc1ccc(Cl)c(Cl)c1)Nc1c(Oc2ccc(Cl)c(Cl)c2)ccc(Cl)c1S(=O)(=O)O | – | – | – | – | 3.01 µM | > 100 µM | 1.71 µM | > 100 µM | 1.84 µM | > 100 µM | – | – | 3.05 µM | 29.8 µM | 2.52 µM | > 100 µM |
| Cc1cc(N2CCOCC2)nc(N[C@@H]2CCC[C@H](Nc3ccnc4cc(Cl)ccc34)C2)n1 | 1.86 µM | 3.39 µM | 2.15 µM | 4.09 µM | 2.66 µM | 8.64 µM | 2.34 µM | 5.01 µM | 2.13 µM | 5.24 µM | 1.89 µM | 3.91 µM | 1.73 µM | 3.27 µM | 5.97 µM | 21.2 µM |
| C[As](C)SCC(COC(=O)C(Cl)c1ccccc1)OC(=O)C(Cl)c1ccccc1 (stereo unspecified) | 0.367 µM | 3.13 µM | 0.222 µM | 1.58 µM | 9.03 µM | 33.6 µM | 2.68 µM | 14.3 µM | 0.754 µM | > 100 µM | 1.36 µM | 11.4 µM | 0.884 µM | 8.05 µM | 0.719 µM | 14.6 µM |
| C=CC(=O)Nc1cc(C)ccc1Nc1nc(Nc2cc(OC)ncc2C)ncc1C(F)(F)F | 0.308 µM | 3.85 µM | 0.416 µM | > 100 µM | 2.13 µM | 11.4 µM | 0.585 µM | 6.07 µM | 0.122 µM | – | 0.397 µM | 2.07 µM | 0.692 µM | > 100 µM | 0.635 µM | > 22.9 µM |
| CO/N=C(\C)c1ccc(Nc2cc(-c3ccccc3)nc3ccc(OC)cc23)cc1 | 1.76 µM | 3.46 µM | 2.52 µM | 6.85 µM | 6.69 µM | > 100 µM | 5.61 µM | 21.4 µM | 5.33 µM | > 100 µM | 3.27 µM | 12.5 µM | 2.17 µM | 4.5 µM | 2.52 µM | 10.3 µM |
| Oc1ccc(-c2nc3ccccc3s2)cc1CN(Cc1ccccn1)Cc1ccccn1 | 2.24 µM | 11.3 µM | 0.486 µM | 34.6 µM | 0.228 µM | 10.5 µM | 1.83 µM | 15.6 µM | 6.74 µM | 19.9 µM | 0.0991 µM | 3.91 µM | 0.353 µM | 10.1 µM | 2.64 µM | 24.3 µM |
| Cc1nc(-c2cn3c(n2)-c2ccc(-c4cnn(C(C)(C)C(N)=O)c4)cc2OCC3)n(C(C)C)n1 | 2.31 µM and 2.67 µM | 26.2 µM and > 10 µM | 0.0722 µM and 0.0489 µM | 32.1 µM and > 10 µM | 0.111 µM and 0.169 µM | > 100 µM | 0.633 µM and 0.594 µM | 17.4 µM and > 10 µM | 0.0225 µM and 0.0401 µM | 17.1 µM and > 10 µM | 0.647 µM and 1.33 µM | > 100 µM | 1.05 µM and 0.747 µM | > 100 µM | 13.8 µM and > 5.49 µM | > 100 µM |
| C#CCSc1cc(Cl)c(C)cc1S(=O)(=O)Nc1nc2ccccc2o1 | 27.8 µM | 62.9 µM | 48.5 µM | > 100 µM | 37.5 µM | > 100 µM | 27.8 µM | 65.5 µM | 42.8 µM | > 100 µM | 35.2 µM | > 100 µM | 31.9 µM | 91.4 µM | 35.9 µM | 87.8 µM |
| C#Cc1c(/C=C/C(=O)OCC)ccc2ccccc12 | 2.11 µM | 5.78 µM | 30.4 µM | 79.1 µM | 78.2 µM | > 100 µM | 18.7 µM | 44.7 µM | 6.61 µM | 26 µM | 14.6 µM | 31.7 µM | 27.5 µM | 74 µM | 20.1 µM | 47.9 µM |
| O=c1cc(-c2cccc3c2Sc2ccccc2S3)oc(N2CCOCC2)c1 | 3.54 µM | 13.5 µM | 12.2 µM | 25 µM | 12.7 µM | 31.2 µM | 4.25 µM | 17 µM | 8.82 µM | 23.5 µM | 11.4 µM | 26.5 µM | 4.05 µM | 18.3 µM | 15.5 µM | 36.9 µM |

From PubChem BioAssay (NCI)
